Experimental data as given in US12642786B2, “Methods, compositions and kits for treating multiple sclerosis and other disorders” (The Johns Hopkins University, priority 2018, dated 2026).
Entries after “also recorded” stand apart in the source; their conditions may differ.

Tests used:
[1] = phase 2 clinical trials in humans; cited from earlier work
[2] = tested on: murine peritoneal macrophages (mPMs); assay: mPM cytokine secretion by ELISA; type: cell-based; conditions: LPS 100 ng/mL, low-dose bryo-1
Protocol: After overnight treatment of BMDCs or mPMs with LPS 100 ng/mL±bryo-1, culture supernatants were collected and cytokine production was assayed using ELISA kits for IL-12 p70 (catalog #88-7121-22), IL-6 (catalog #88-7064-22), and IL-10 (catalog #88-7105-22) purchased from eBioscience, according to manufacturer's instructions. Plates were read at 450 nm on a tabletop plate reader.
Mice aged 8-12 wk were injected intraperitoneally with 2 mL each of 3% sterile thioglycolate (BD Biosciences, catalog #211716) medium. The mice were killed 3-5 d later, and cells were harvested by peritoneal lavage with ice-cold RPMI medium containing 2% FBS (FBS) and 1 unit/mL heparin. The cells were pelleted by centrifugation at 500×g for 8 min, washed in ice-cold RPMI containing 2% FBS alone, pelleted by centrifugation, and resuspended in ice-cold Spinner-modification minimum essential medium (SMEM; Sigma, M8167) supplemented with 10% FBS, 2 mM glutamine, and penicillin-streptomycin (SMEM-complete). Cells were then counted, equal numbers were plated into each well of appropriate cell culture dishes, and the cells were then incubated at 37° C. for 2-4 h to allow macrophage adhesion. Contaminating nonadherent cells were then removed by washing culture dishes five times with ice-cold sterile PBS. Fresh SMEM-complete was then added to the plates, which were incubated overnight at 37° C. […]

[3] = tested on: murine peritoneal macrophages (mPMs); assay: mPM arginase-1 expression by Western blot; type: cell-based; conditions: IL-4 20 ng/mL
Protocol: Cells were lysed by sonication in RIPA buffer supplemented with protease inhibitors, and protein concentration was measured by Bradford assay. Lysates were mixed with SDS sample buffer, boiled, and resolved by SDS/PAGE. Bands were transferred to PVDF Immobilon P membranes (Millipore) using a wet transfer, blocked in TBS-T containing 5% milk, and probed overnight at 4° C. with mouse monoclonal antibody against arginase-1 (Santa Cruz Biotechnology, catalog #sc-271430, 1:500). HRP-conjugated anti-mouse secondary antibody was from Jackson ImmunoResearch. Western blots were visualized using the SuperSignal West ECL system (Thermo Scientific), followed by film exposure. Blots were then stripped using Restore Western blot stripping buffer (Thermo Scientific, catalog #21059), blocked again as earlier, and probed overnight at 4° C. with HRP-conjugated anti-actin antibody before visualization as earlier. Quantitation was performed using ImageJ software.
Mice aged 8-12 wk were injected intraperitoneally with 2 mL each of 3% sterile thioglycolate (BD Biosciences, catalog #211716) medium. […] Cells were then counted, equal numbers were plated into each well of appropriate cell culture dishes, and the cells were then incubated at 37° C. for 2-4 h to allow macrophage adhesion. […]

[4] = tested on: EAE (MOG35-55 immunized mice); assay: EAE, late treatment initiated at day 28 post-immunization, clinical scoring; type: in vivo, C57BL/6J mice
Protocol: (§1) Active EAE was induced in 8-12 wk-old female C57BL/6J mice that had been allowed to acclimatize to the animal facility for at least 1 wk. MOG35-55 peptide dissolved in PBS at a concentration of 2 mg/mL was mixed 1:1 with complete Freund's adjuvant to make an emulsion. On day 0, mice were immunized by injecting 50 μL of the emulsion s.c. into each of two sites on the lateral abdomen. In addition, on day 0 and again on day 2, mice were injected intraperitoneally with 250 ng pertussis toxin. Mice were weighed and scored beginning on day 7 post-immunization. Scoring was performed in a blinded manner according to the following scale:
(§2) Bryo-1 was prepared by initially dissolving in 100% ethanol and then further diluting to 20% ethanol and 1% DMSO in PBS. The final concentration of bryo-1 was […] Mice were treated by i.p. injection of […] bryo-1 or an equal volume of vehicle control (20% ethanol and 1% DMSO in PBS) 3 d per week (Monday, Wednesday, Friday).
In a third set of experiments, mice were randomized and treatment was begun on day 28 post-immunization, more than 10 d after peak disease and once motor deficits had reached a stable plateau.
In another set of mice, to determine whether bryo-1 could reverse established neurologic deficits in EAE, mice were randomized and began treatment on day 28 post-immunization, more than 10 d after peak disease and once motor deficits had reached a stable plateau (FIG. 2C). […] Treatment was continued for just more than 3 wk and discontinued on day 51 post-immunization.

[5] = tested on: EAE (MOG35-55 immunized mice); assay: EAE, treatment initiated at clinical score of 1.0, clinical scoring; type: in vivo, C57BL/6J mice
Protocol: as §1, §2
In a second set of experiments, mice were randomized and treatment was begun when the mice reached a clinical score of 1.0 (corresponding to tail paralysis). In this paradigm, mice received their first treatment on the day they reached a score of 1.0, and subsequently were returned to a 3 d/week schedule in sync with the other animals.
The effects of bryo-1 in two distinct therapeutic paradigms were analyzed. In both paradigms, treatments began after the onset of EAE, but the start of the treatments occurred at two different stages of the disease. In the first set of experiments, mice were randomized and treatment was initiated at the first clinical sign of motor weakness, corresponding to tail paralysis (FIG. 2A).

[6] = tested on: corpus callosum, LPC demyelination; assay: Lysolecithin (LPC)-induced demyelination, MBP staining; type: in vivo, C57BL/6J mice; conditions: 30 μg/kg IP at 3, 5, 7 and 9 dpl, assessed at 10 dpl
Protocol: To evaluate the impact of systemic treatment with bryo-1 on physiologic demyelination in vivo, we conducted a lysolecithin (LPC)-induced demyelination animal study. LPC was stereotactically injected into the corpus callosum of 12-week old C57BL/6J mice. Bryo-1 (30 μg/kg) or vehicle was injected IP at 3, 5, 7, and 9 dpl followed by immunofluorescent assessment of MBP expression at 10 dpl.

[7] = tested on: mixed glial cultures (MGCs); assay: Mixed glial cultures, iNOS / Arg1 immunoblot; type: cell-based, C57BL/6J mice
Protocol: Mixed glial cultures (MGCs) obtained from the cerebral cortices of P1-P3 neonatal C57BL/6J mice were used, prepared as described by Saura et al., Glia (2003) 44:183-189. Mixed glial cultures were treated with LPS (FIG. 6A) or IL4 (FIG. 6B) ±vehicle or the indicated dose of bryo-1. Expression of iNOS or Argl, respectively, was assessed by immunoblot. Images are representative of 3 independent experiments.

CCC/C=C/C=C/C(=O)OC1/C(=C/C(=O)OC)CC2CC(C(C)O)OC(=O)CC(O)CC3CC(OC(C)=O)C(C)(C)C(O)(CC4C/C(=C/C(=O)OC)CC(/C=C/C(C)(C)C1(O)O2)O4)O3 (stereo not drawn) [bryo-1, Bryostatin-1]
safety profile [1]: favorable safety profile | LPS-induced secretion of IL-6 [2]: inhibited | LPS-induced secretion of IL-12 [2]: inhibited | IL-4-induced expression of arginase-1 [3]: augments expression; also recorded: potentiated | clinical scores after discontinuation vs vehicle-treated group ([4]; after discontinuation at day 51, followed through day 71): remained significantly lower; also recorded: remained below those of vehicle-treated mice | clinical scores throughout the treatment period and for several days after discontinuation ([4]; treatment day 28 to day 51 post-immunization): steadily improved | time after discontinuing at which neurologic deficits worsened ([4]; treatment discontinued on day 51 post-immunization): approximately 1 wk | time to improvement after treatment initiation ([4]; treatment started day 28 post-immunization): within a week of treatment initiation | established motor deficits ([4]; treatment started day 28 post-immunization, 30 μg/kg i.p. 3 d per week): reversed motor deficits | motor deficits and subsequent course of EAE ([5]; 30 μg/kg i.p. 3 d per week, started at first clinical sign (tail paralysis, score 1.0)): substantially attenuated | peak clinical score vs vehicle-treated mice ([5]; treatment started at score 1.0): lower peak clinical score | recovery vs vehicle-treated mice ([5]; treatment started at score 1.0): faster recovery | rate of oligodendrogenesis (MBP staining) [6]: appears to have increased the rate of oligodendrogenesis | expression of Argl (M2 marker) ([7]; MGCs treated with IL4, dose as low as 1 nM): dramatically augmented expression | induction of iNOS (an M1 marker) by LPS ([7]; MGCs treated with LPS): blocked the induction
